Results reported in the supplement of paper PMC10307832.

What was measured:
Experiment in all cases: relative viability (nuclei count vs DMSO), 5 days (fraction); higher = more cells survive
FH535 + Trametinib = compound: CC1=C(C=CC(=C1)[N+](=O)[O-])NS(=O)(=O)C2=C(C=CC(=C2)Cl)Cl [FH535] + CC(=O)Nc1cccc(-n2c(=O)n(C3CC3)c(=O)c3c(Nc4ccc(I)cc4F)n(C)c(=O)c(C)c32)c1 [Trametinib] (partner 0.02 µM)
Method in brief: (§1)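 Each reported value is a median over duplicate plates. It expresses relative viability: treated-well nuclei count divided by vehicle-well nuclei count. Lung cancer cell lines in 1536-well plates were dosed by pin tool a day after seeding, alone with one drug or with a fixed anchor-drug dose plus five library-drug doses (not always all listed) in √10 steps, and nuclei were counted after 5 days.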

FH535 + Crizotinib = compound: CC1=C(C=CC(=C1)[N+](=O)[O-])NS(=O)(=O)C2=C(C=CC(=C2)Cl)Cl [FH535] + C[C@@H](Oc1cc(-c2cnn(C3CCNCC3)c2)cnc1N)c1c(Cl)ccc(F)c1Cl [Crizotinib] (partner 1 µM)
Method in brief: as §1

FH535 + Linsitinib = compound: CC1=C(C=CC(=C1)[N+](=O)[O-])NS(=O)(=O)C2=C(C=CC(=C2)Cl)Cl [FH535] + C[C@]1(O)C[C@@H](c2nc(-c3ccc4ccc(-c5ccccc5)nc4c3)c3c(N)nccn32)C1 [Linsitinib] (partner 1 µM)
Method in brief: as §1

FH535 + Pemetrexed = compound: CC1=C(C=CC(=C1)[N+](=O)[O-])NS(=O)(=O)C2=C(C=CC(=C2)Cl)Cl [FH535] + Nc1nc2[nH]cc(CCc3ccc(C(=O)N[C@@H](CCC(=O)O)C(=O)O)cc3)c2c(=O)[nH]1 [Pemetrexed] (partner 0.2 µM)
Method in brief: as §1

FH535 + Olaparib = compound: CC1=C(C=CC(=C1)[N+](=O)[O-])NS(=O)(=O)C2=C(C=CC(=C2)Cl)Cl [FH535] + O=C(c1cc(Cc2n[nH]c(=O)c3ccccc23)ccc1F)N1CCN(C(=O)C2CC2)CC1 [Olaparib] (partner 8 µM)
Method in brief: as §1

| Cell Line | relative viability (FH535 + Trametinib; first compound 0.04 µM) | relative viability (FH535 + Trametinib; first compound 0.1265 µM) | relative viability (FH535 + Trametinib; first compound 0.4 µM) | relative viability (FH535 + Trametinib; first compound 1.265 µM) | relative viability (FH535 + Crizotinib; first compound 0.04 µM) | relative viability (FH535 + Crizotinib; first compound 0.1265 µM) | relative viability (FH535 + Crizotinib; first compound 0.4 µM) | relative viability (FH535 + Crizotinib; first compound 1.265 µM) | relative viability (FH535 + Linsitinib; first compound 0.04 µM) | relative viability (FH535 + Linsitinib; first compound 0.1265 µM) | relative viability (FH535 + Linsitinib; first compound 0.4 µM) | relative viability (FH535 + Linsitinib; first compound 1.265 µM) | relative viability (FH535 + Pemetrexed; first compound 0.04 µM) | relative viability (FH535 + Pemetrexed; first compound 0.1265 µM) | relative viability (FH535 + Pemetrexed; first compound 0.4 µM) | relative viability (FH535 + Pemetrexed; first compound 1.265 µM) | relative viability (FH535 + Olaparib; first compound 0.04 µM) | relative viability (FH535 + Olaparib; first compound 0.1265 µM) | relative viability (FH535 + Olaparib; first compound 0.4 µM) | relative viability (FH535 + Olaparib; first compound 1.265 µM) |
| --- | --- | --- | --- | --- | --- | --- | --- | --- | --- | --- | --- | --- | --- | --- | --- | --- | --- | --- | --- | --- |
| LXF-289 | 0.726 | 0.689 | 0.62 | 0.436 | 0.795 | 0.832 | 0.74 | 0.567 | 0.949 | 0.938 | 0.897 | 0.697 | 0.775 | 0.948 | 0.95 | 0.751 | 0.916 | 1.06 | 1.03 | 0.587 |
| NCI-H23 | 0.345 | 0.448 | 0.418 | 0.306 |  | 0.555 | 0.584 | 0.581 |  | 0.633 | 0.628 | 0.567 | 0.517 | 0.782 | 0.625 | 0.436 | 0.255 | 0.331 | 0.3 | 0.273 |
| NCI-H322M | 0.47 | 0.459 | 0.478 | 0.526 | 0.819 | 0.906 | 1.03 | 1.04 | 0.982 | 1.07 | 1 | 0.847 | 0.559 | 0.67 | 0.633 | 0.587 | 0.739 | 0.664 | 0.778 | 0.741 |
| NCI-H358 | 0.134 | 0.143 | 0.124 | 0.127 | 0.482 | 0.576 | 0.582 | 0.542 | 0.696 | 0.822 | 0.791 | 0.552 | 0.178 | 0.16 | 0.169 | 0.16 | 0.558 | 0.611 | 0.589 | 0.635 |
| NCI-H441 | 0.454 | 0.334 | 0.428 | 0.394 | 0.603 | 0.797 | 0.768 | 0.628 | 0.573 | 0.447 | 0.521 | 0.615 | 0.232 | 0.254 | 0.231 | 0.257 | 0.516 | 0.501 | 0.459 | 0.439 |
| NCI-H460 | 0.12 | 0.152 | 0.157 | 0.103 | 1.04 | 0.991 | 1.08 | 0.652 | 0.902 | 0.891 | 0.791 | 0.678 | 0.0603 | 0.0608 | 0.0625 | 0.0646 | 0.402 | 0.386 | 0.379 | 0.32 |
| NCI-H520 | 0.703 | 0.691 | 0.696 | 0.684 | 0.716 | 0.893 | 0.803 | 0.754 | 0.982 | 0.959 | 0.915 | 0.873 | 0.737 | 0.818 | 0.585 | 0.659 | 0.319 | 0.277 | 0.268 | 0.314 |
| NCI-H596 | 0.814 | 0.864 | 0.854 | 0.748 | 1.02 | 1.02 | 1.08 | 0.929 | 1.1 | 1.13 | 1.1 | 1.01 | 0.499 | 0.507 | 0.454 | 0.507 | 0.725 | 0.815 | 0.733 | 0.598 |
| NCI-H647 | 0.51 | 0.566 | 0.424 | 0.418 | 1.26 | 1.02 | 1.1 | 0.895 | 1.09 | 1.11 | 1.17 | 0.912 | 0.2 | 0.219 | 0.187 | 0.152 | 0.586 | 0.528 | 0.467 | 0.509 |
| NCI-H650 | 0.887 | 0.953 | 1.04 | 0.795 | 0.694 | 0.854 | 0.738 | 0.567 | 0.687 | 1.09 | 0.832 | 0.603 | 0.926 | 0.956 | 0.915 | 0.68 | 0.384 | 0.341 | 0.369 | 0.249 |
| NCI-H661 | 0.526 | 0.686 | 0.553 | 0.365 | 1.08 | 0.955 | 0.931 | 0.797 | 0.521 | 0.537 | 0.539 | 0.493 | 0.903 | 0.96 | 0.839 | 0.66 | 0.729 | 0.743 | 0.66 | 0.515 |
| NCI-H838 | 0.536 | 0.52 | 0.452 | 0.462 | 0.959 | 0.962 | 0.797 | 0.654 | 0.987 | 1.03 | 0.938 | 0.908 | 0.249 | 0.233 | 0.216 | 0.204 | 0.727 | 0.768 | 0.66 | 0.475 |
| NCI-H1355 | 0.397 | 0.428 | 0.406 | 0.329 | 0.929 | 1.14 | 0.977 | 0.555 | 0.745 | 0.822 | 0.78 | 0.633 | 1.03 | 1.05 | 0.984 | 0.91 | 0.649 | 0.796 | 0.709 | 0.476 |
| NCI-H1437 | 0.498 | 0.567 | 0.386 | 0.32 | 0.9 | 0.831 | 0.772 | 0.344 | 1.02 | 0.962 | 0.879 | 0.421 | 0.297 | 0.328 | 0.284 | 0.2 | 0.608 | 0.575 | 0.491 | 0.336 |
| NCI-H1651 | 0.81 | 0.78 | 0.79 | 0.666 | 0.856 | 0.81 | 0.853 | 0.611 | 0.999 | 0.949 | 0.942 | 0.731 | 0.568 | 0.595 | 0.551 | 0.553 | 0.174 | 0.194 | 0.188 | 0.184 |
